{"source": "patent US7202085B2", "about": "“Control of gene expression in eukaryotic cells” (Calgene LLC, priority 1999, dated 2007)", "test_system": "VP16-TraR", "test": "Transient GUS reporter assay in carrot protoplasts with VP16-TraR effector and tra box reporter", "assay_type": "cell-based, Agrobacterium tumefaciens", "conditions": "Table 8: TraA8(4X) +TraR", "from_the_text": "Carrot protoplasts were transfected with the TraA8 (4×)-GUS reporter construct with the 35S-VP16-TraR activator gene and tested for GUS induction by application of wild type AHL and the various AHL analogs described in Example 8.", "note": "Where “and” joins values, the source holds several entries; their conditions need not be identical. Equal entries are not always repeated."}
{"smiles": "CCCCCCC(C(C)=O)C(=O)N[C@@H](CCO)C(=O)O", "note": "(stereo partly drawn) [compound 26, N-(α-Hexyl-b-ketobutanoyl)-(S)-homoserine]", "values": [{"measurement": "1, 2, 3 (replicate GUS activities at the lower concentration)", "setting": "5 μM", "result": "382.0 and 407.6 and 373.1"}, {"measurement": "4, 5, 6 (replicate GUS activities at the higher concentration)", "setting": "12.5 μM", "result": "2145.8 and 1764.6 and 1527.0"}, {"measurement": "1, 2, 3 (replicate GUS activities at the lower concentration)", "setting": "25 μM", "result": "1658.7 and 1300.7 and 1586.6"}, {"measurement": "4, 5, 6 (replicate GUS activities at the higher concentration)", "setting": "75 μM", "result": "2585.3 and 3238.5 and 2815.8"}]}
